Data taken from ChEMBL document CHEMBL1201862, “PubChem BioAssay data set” (2004).
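Where inhibition never reached the appropriate level, the endpoint shown equals the highest concentration tested. Otherwise, values were interpolated linearly from a five-concentration, 48-hour dose response in 96-well plates. GI50 marks 50% less growth.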 Calls of active or inactive are those of the source. Rule as the data show it: active = GI50 up to about 1.1 µM and inactive = higher.

How the values were obtained:
Experiment in all cases: DTP human tumour cell line panel, 48 h
M14 = test system: M14
LOX IMVI = test system: LOX IMVI
EKVX = test system: EKVX
786-0 = test system: 786-0
UO-31 = test system: UO-31
CCRF-CEM = test system: CCRF-CEM
KM12 = test system: KM12
MDA-MB-435 = test system: MDA-MB-435
ACHN = test system: ACHN
NCI-H460 = test system: NCI-H460
OVCAR-3 = test system: OVCAR-3
UACC-257 = test system: UACC-257
HL-60 = test system: HL-60
TK-10 = test system: TK-10
T47D = test system: T47D
SR = test system: SR
SF-295 = test system: SF-295
HCT-116 = test system: HCT-116
SN12C = test system: SN12C
NCI-H522 = test system: NCI-H522

Measured: GI50

Cn1c(-c2cccc([N+](=O)[O-])c2)[n+](C)c2ccccc21
inactive: M14 > 100 µM | LOX IMVI > 100 µM | EKVX > 100 µM | 786-0 > 100 µM | UO-31 > 100 µM | CCRF-CEM > 100 µM | KM12 > 100 µM | MDA-MB-435 > 100 µM | ACHN 41.6 µM | NCI-H460 > 100 µM | OVCAR-3 30.8 µM | UACC-257 > 100 µM | HL-60 29.2 µM | TK-10 > 100 µM | T47D > 100 µM | SR > 100 µM | SF-295 > 100 µM | HCT-116 > 100 µM

CCOC(=O)C(NC(=O)NCc1ccc(F)cc1)C(F)(F)F (stereo not drawn)
inactive: M14 > 100 µM | LOX IMVI > 100 µM | EKVX > 100 µM | 786-0 > 100 µM | UO-31 > 100 µM | CCRF-CEM > 100 µM | MDA-MB-435 > 100 µM | ACHN > 100 µM | SN12C > 100 µM | UACC-257 > 100 µM | HL-60 > 100 µM | TK-10 > 100 µM | T47D > 100 µM | SR > 100 µM | HCT-116 > 100 µM

O/N=C1/CCCCCC1NO (stereo not drawn)
inactive: M14 > 100 µM | LOX IMVI > 100 µM | EKVX > 100 µM | 786-0 > 100 µM | UO-31 > 100 µM | KM12 > 100 µM | MDA-MB-435 > 100 µM | ACHN > 100 µM | NCI-H460 > 100 µM | OVCAR-3 > 100 µM | SN12C > 100 µM | UACC-257 > 100 µM | TK-10 > 100 µM | T47D > 100 µM | SR > 10 µM | SF-295 > 100 µM | HCT-116 > 100 µM

C/C(CC/C(C)=N/O)=N\O
inactive: M14 > 100 µM | LOX IMVI > 100 µM | EKVX > 100 µM | 786-0 > 100 µM | UO-31 > 100 µM | KM12 > 100 µM | MDA-MB-435 > 100 µM | ACHN > 100 µM | NCI-H460 > 100 µM | OVCAR-3 > 100 µM | SN12C > 100 µM | UACC-257 > 100 µM | HL-60 > 100 µM | NCI-H522 > 100 µM | TK-10 > 100 µM | T47D > 100 µM | SF-295 > 100 µM | HCT-116 > 100 µM

O=C(Nc1ccc2[nH]c(C(=O)N3CC(CCl)c4ccc([N+](=O)[O-])cc43)cc2c1)c1cc2ccccc2o1 (stereo not drawn)
inactive: M14 > 1100 µM | LOX IMVI > 1100 µM | EKVX > 1100 µM | 786-0 > 1100 µM | UO-31 > 1100 µM | CCRF-CEM > 1100 µM | KM12 > 1100 µM | MDA-MB-435 > 1100 µM | NCI-H460 98.4 µM | OVCAR-3 > 1100 µM | SN12C > 1100 µM | UACC-257 > 1100 µM | HL-60 > 1100 µM | NCI-H522 258 µM | T47D > 1100 µM | SF-295 716 µM | HCT-116 > 1100 µM

O=c1cc(N2CCOCC2)[nH]c(=O)n1-c1cccc(Cl)c1
inactive: M14 > 100 µM | LOX IMVI > 100 µM | EKVX > 100 µM | 786-0 > 100 µM | CCRF-CEM > 100 µM | KM12 > 100 µM | MDA-MB-435 > 100 µM | ACHN > 100 µM | NCI-H460 > 100 µM | OVCAR-3 > 100 µM | SN12C > 100 µM | UACC-257 > 100 µM | HL-60 > 100 µM | NCI-H522 > 100 µM | TK-10 > 100 µM | T47D > 100 µM | SF-295 > 100 µM | HCT-116 > 100 µM

CNc1nc(C(N)=O)c(N)s1
inactive: M14 > 100 µM | LOX IMVI > 100 µM | EKVX > 100 µM | 786-0 > 100 µM | UO-31 > 100 µM | CCRF-CEM > 100 µM | KM12 > 100 µM | MDA-MB-435 > 100 µM | ACHN > 100 µM | NCI-H460 > 100 µM | OVCAR-3 > 100 µM | SN12C > 100 µM | UACC-257 > 100 µM | HL-60 > 100 µM | NCI-H522 > 100 µM | TK-10 > 100 µM | T47D > 100 µM | SF-295 > 100 µM | HCT-116 > 100 µM

CC1CC(=O)Nc2cc(Cl)ccc2N1C(=O)C1CC1 (stereo not drawn)
inactive: M14 > 100 µM | LOX IMVI > 100 µM | EKVX > 100 µM | 786-0 > 100 µM | UO-31 > 100 µM | CCRF-CEM > 100 µM | KM12 > 100 µM | MDA-MB-435 > 100 µM | ACHN > 100 µM | NCI-H460 > 100 µM | OVCAR-3 > 100 µM | SN12C > 100 µM | UACC-257 > 100 µM | HL-60 > 100 µM | NCI-H522 > 100 µM | TK-10 > 100 µM | T47D > 100 µM | SF-295 > 100 µM | HCT-116 > 100 µM

Cc1ccc2nc3c(=O)[nH]c(=O)nc-3n(C)c2c1C
inactive: M14 > 100 µM | LOX IMVI > 100 µM | EKVX > 100 µM | 786-0 > 100 µM | UO-31 > 100 µM | CCRF-CEM > 100 µM | KM12 > 100 µM | MDA-MB-435 > 100 µM | ACHN > 100 µM | NCI-H460 > 100 µM | OVCAR-3 > 100 µM | SN12C > 100 µM | UACC-257 > 100 µM | HL-60 > 100 µM | NCI-H522 > 100 µM | TK-10 > 100 µM | T47D > 100 µM | SF-295 > 100 µM | HCT-116 > 100 µM

CCCCCCCCCCCCCCCCOP(=O)(O)OP(=O)(O)OCC1OC(n2ccc(N)nc2=O)CC1O (stereo not drawn)
inactive: M14 > 100 µM | LOX IMVI > 100 µM | EKVX > 100 µM | 786-0 > 100 µM | UO-31 > 100 µM | CCRF-CEM > 100 µM | KM12 > 100 µM | MDA-MB-435 > 100 µM | ACHN > 100 µM | NCI-H460 > 100 µM | OVCAR-3 > 100 µM | SN12C > 100 µM | UACC-257 > 100 µM | HL-60 > 100 µM | NCI-H522 > 100 µM | TK-10 > 100 µM | T47D > 100 µM | SF-295 > 100 µM | HCT-116 > 100 µM

CN(C)CCCNc1c2ccccc2[n+]([O-])c2ccccc12
inactive: M14 > 100 µM | LOX IMVI 31.2 µM | EKVX 40.6 µM | 786-0 40.6 µM | UO-31 34.5 µM | CCRF-CEM 62.1 µM | KM12 39.3 µM | MDA-MB-435 50.8 µM | ACHN 49.1 µM | NCI-H460 27.5 µM | OVCAR-3 66.8 µM | SN12C 46.1 µM | UACC-257 56.8 µM | HL-60 51.8 µM | NCI-H522 28.2 µM | TK-10 31.9 µM | T47D 78 µM | SF-295 54 µM | HCT-116 34 µM
